Assay results from article PMC11731290, “Highly Active Oligoethylene Glycol Pleuromutilins via Systematic Linker Synthesis/One-Pot Attachment and a Microscale Solubility Method” (The Journal of Organic Chemistry, 2024).
Values after ≈ are worked out from the molar mass of the structure shown.

tested on: S. aureus 6538P; assay: Broth microdilution MIC, S. aureus 6538P; type: cell-based; conditions: Staphylococcus aureus, broth microdilution, 37 °C, 16–18 h, MIC = lowest concentration inhibiting >90% of growth, read-out: Minimum inhibitory concentration, S. aureus 6538P

Row | Structure (SMILES) | MIC
1 | C=C[C@]1(C)C[C@@H](OC(=O)CSCCOCCOCCN=[N+]=[N-])[C@]2(C)[C@H](C)CC[C@]3(CCC(=O)[C@H]32)[C@@H](C)[C@@H]1O [compound 30] | 0.781 µM (≈ 0.431 µg/mL)
2 | C=C[C@]1(C)C[C@@H](OC(=O)CSCCOCCOCCO)[C@]2(C)[C@H](C)CC[C@]3(CCC(=O)[C@H]32)[C@@H](C)[C@@H]1O [compound 44] | 0.781 µM (≈ 0.411 µg/mL)

same assay, conditions: Staphylococcus aureus, read-out: Minimum inhibitory concentration, S. aureus 6538P

Row | Structure (SMILES) | MIC
3 | C=C[C@]1(C)C[C@@H](OC(=O)CSCCOCCOCCOCCOCCOCCO)[C@]2(C)[C@H](C)CC[C@]3(CCC(=O)[C@H]32)[C@@H](C)[C@@H]1O [compound 47] | 0.781 µM (≈ 0.515 µg/mL)
4 | C=C[C@]1(C)C[C@@H](OC(=O)CSCCOCCOCCOCCOCCOCCOCCOCCO)[C@]2(C)[C@H](C)CC[C@]3(CCC(=O)[C@H]32)[C@@H](C)[C@@H]1O [compound 48] | 1.56 µM (≈ 1.17 µg/mL)
5 | C=C[C@]1(C)C[C@@H](OC(=O)CSCCOCCOCCOCCO)[C@]2(C)[C@H](C)CC[C@]3(CCC(=O)[C@H]32)[C@@H](C)[C@@H]1O [compound 45] | 0.781 µM (≈ 0.446 µg/mL)
6 | C=C[C@]1(C)C[C@@H](OC(=O)CSCCOCCOCCOCCOCCO)[C@]2(C)[C@H](C)CC[C@]3(CCC(=O)[C@H]32)[C@@H](C)[C@@H]1O [compound 46] | 0.781 µM (≈ 0.48 µg/mL)
7 | C=C[C@]1(C)C[C@@H](OC(=O)CO)[C@]2(C)[C@H](C)CC[C@]3(CCC(=O)[C@H]32)[C@@H](C)[C@@H]1O [compound 1, Pleuromutilin] | 3.12 µM (≈ 1.18 µg/mL)

tested on: vancomycin-resistant Enterococcus (VRE); assay: Broth microdilution MIC, VRE; type: cell-based; conditions: Enterococcus, VRE, 24 h, read-out: Minimum inhibitory concentration, VRE

Row | Structure (SMILES) | MIC
8 | C=C[C@]1(C)C[C@@H](OC(=O)CO)[C@]2(C)[C@H](C)CC[C@]3(CCC(=O)[C@H]32)[C@@H](C)[C@@H]1O [compound 1, Pleuromutilin] | 12.5 µM (≈ 4.73 µg/mL)

same assay, conditions: Enterococcus, VRE; broth microdilution, 37 °C, 24 h; MIC = lowest concentration inhibiting >90% of growth; read-out: Minimum inhibitory concentration, VRE

Row | Structure (SMILES) | MIC
9 | C=C[C@]1(C)C[C@@H](OC(=O)CSCCOCCOCCOCCOCCOCCO)[C@]2(C)[C@H](C)CC[C@]3(CCC(=O)[C@H]32)[C@@H](C)[C@@H]1O [compound 47] | 3.12 µM (≈ 2.06 µg/mL)
10 | C=C[C@]1(C)C[C@@H](OC(=O)CSCCOCCOCCOCCOCCOCCOCCOCCO)[C@]2(C)[C@H](C)CC[C@]3(CCC(=O)[C@H]32)[C@@H](C)[C@@H]1O [compound 48] | 3.12 µM (≈ 2.33 µg/mL)
11 | C=C[C@]1(C)C[C@@H](OC(=O)CSCCOCCOCCOCCO)[C@]2(C)[C@H](C)CC[C@]3(CCC(=O)[C@H]32)[C@@H](C)[C@@H]1O [compound 45] | 3.12 µM (≈ 1.78 µg/mL)
12 | C=C[C@]1(C)C[C@@H](OC(=O)CSCCOCCOCCN=[N+]=[N-])[C@]2(C)[C@H](C)CC[C@]3(CCC(=O)[C@H]32)[C@@H](C)[C@@H]1O [compound 30] | 3.12 µM (≈ 1.72 µg/mL)
13 | C=C[C@]1(C)C[C@@H](OC(=O)CSCCOCCOCCO)[C@]2(C)[C@H](C)CC[C@]3(CCC(=O)[C@H]32)[C@@H](C)[C@@H]1O [compound 44] | 3.12 µM (≈ 1.64 µg/mL)
14 | C=C[C@]1(C)C[C@@H](OC(=O)CSCCOCCOCCOCCOCCO)[C@]2(C)[C@H](C)CC[C@]3(CCC(=O)[C@H]32)[C@@H](C)[C@@H]1O [compound 46] | 3.12 µM (≈ 1.92 µg/mL)

tested on: E. coli ΔTolC; assay: Broth microdilution MIC, E. coli ΔTolC; type: cell-based; conditions: Escherichia coli, read-out: Minimum inhibitory concentration, E. coli ΔTolC

Row | Structure (SMILES) | MIC
15 | C=C[C@]1(C)C[C@@H](OC(=O)CSCCOCCOCCOCCOCCOCCO)[C@]2(C)[C@H](C)CC[C@]3(CCC(=O)[C@H]32)[C@@H](C)[C@@H]1O [compound 47] | 0.781 µM (≈ 0.515 µg/mL)
16 | C=C[C@]1(C)C[C@@H](OC(=O)CSCCOCCOCCOCCOCCOCCOCCOCCO)[C@]2(C)[C@H](C)CC[C@]3(CCC(=O)[C@H]32)[C@@H](C)[C@@H]1O [compound 48] | 1.56 µM (≈ 1.17 µg/mL)
17 | C=C[C@]1(C)C[C@@H](OC(=O)CSCCOCCOCCOCCO)[C@]2(C)[C@H](C)CC[C@]3(CCC(=O)[C@H]32)[C@@H](C)[C@@H]1O [compound 45] | 0.781 µM (≈ 0.446 µg/mL)
18 | C=C[C@]1(C)C[C@@H](OC(=O)CSCCOCCOCCN=[N+]=[N-])[C@]2(C)[C@H](C)CC[C@]3(CCC(=O)[C@H]32)[C@@H](C)[C@@H]1O [compound 30] | 0.391 µM (≈ 0.216 µg/mL)
19 | C=C[C@]1(C)C[C@@H](OC(=O)CSCCOCCOCCO)[C@]2(C)[C@H](C)CC[C@]3(CCC(=O)[C@H]32)[C@@H](C)[C@@H]1O [compound 44] | 0.391 µM (≈ 0.206 µg/mL)
20 | C=C[C@]1(C)C[C@@H](OC(=O)CSCCOCCOCCOCCOCCO)[C@]2(C)[C@H](C)CC[C@]3(CCC(=O)[C@H]32)[C@@H](C)[C@@H]1O [compound 46] | 0.781 µM (≈ 0.48 µg/mL)
21 | C=C[C@]1(C)C[C@@H](OC(=O)CO)[C@]2(C)[C@H](C)CC[C@]3(CCC(=O)[C@H]32)[C@@H](C)[C@@H]1O [compound 1, Pleuromutilin] | 3.12 µM (≈ 1.18 µg/mL)

tested on: not given; assay: not given; parameters: method as in earlier work; conditions: cited from earlier work

Row | Structure (SMILES) | water solubility
22 | C=C[C@]1(C)C[C@@H](OC(=O)CO)[C@]2(C)[C@H](C)CC[C@]3(CCC(=O)[C@H]32)[C@@H](C)[C@@H]1O [compound 1, Pleuromutilin] | 20 µg/mL (≈ 52.8 µM)

tested on: E. coli MC1061; assay: Broth microdilution MIC, E. coli MC1061; type: cell-based; conditions: Escherichia coli, MC1061, read-out: Minimum inhibitory concentration, E. coli MC1061

Row | Structure (SMILES) | MIC
23 | C=C[C@]1(C)C[C@@H](OC(=O)CO)[C@]2(C)[C@H](C)CC[C@]3(CCC(=O)[C@H]32)[C@@H](C)[C@@H]1O [compound 1, Pleuromutilin] | 3.12 µM (≈ 1.18 µg/mL)

same assay, conditions: Escherichia coli, MC1061; broth microdilution, 37 °C, 16–18 h; MIC = lowest concentration inhibiting >90% of growth; read-out: Minimum inhibitory concentration, E. coli MC1061

Row | Structure (SMILES) | MIC
24 | C=C[C@]1(C)C[C@@H](OC(=O)CSCCOCCOCCOCCOCCOCCO)[C@]2(C)[C@H](C)CC[C@]3(CCC(=O)[C@H]32)[C@@H](C)[C@@H]1O [compound 47] | 25 µM (≈ 16.5 µg/mL)
25 | C=C[C@]1(C)C[C@@H](OC(=O)CSCCOCCOCCOCCOCCOCCOCCOCCO)[C@]2(C)[C@H](C)CC[C@]3(CCC(=O)[C@H]32)[C@@H](C)[C@@H]1O [compound 48] | 25 µM (≈ 18.7 µg/mL)
26 | C=C[C@]1(C)C[C@@H](OC(=O)CSCCOCCOCCOCCO)[C@]2(C)[C@H](C)CC[C@]3(CCC(=O)[C@H]32)[C@@H](C)[C@@H]1O [compound 45] | 12.5 µM (≈ 7.13 µg/mL)
27 | C=C[C@]1(C)C[C@@H](OC(=O)CSCCOCCOCCN=[N+]=[N-])[C@]2(C)[C@H](C)CC[C@]3(CCC(=O)[C@H]32)[C@@H](C)[C@@H]1O [compound 30] | 25 µM (≈ 13.8 µg/mL)
28 | C=C[C@]1(C)C[C@@H](OC(=O)CSCCOCCOCCO)[C@]2(C)[C@H](C)CC[C@]3(CCC(=O)[C@H]32)[C@@H](C)[C@@H]1O [compound 44] | 12.5 µM (≈ 6.58 µg/mL)
29 | C=C[C@]1(C)C[C@@H](OC(=O)CSCCOCCOCCOCCOCCO)[C@]2(C)[C@H](C)CC[C@]3(CCC(=O)[C@H]32)[C@@H](C)[C@@H]1O [compound 46] | 12.5 µM (≈ 7.69 µg/mL)

tested on: not listed separately; assay: Microscale solubility by optical density (plate reader); conditions: 37 °C, aqueous buffer, kinetic from dmso stock

Row | Structure (SMILES) | solubility at 1 day
30 | C=C[C@]1(C)C[C@@H](OC(=O)CSCCOCCOCCOCCOCCOCCO)[C@]2(C)[C@H](C)CC[C@]3(CCC(=O)[C@H]32)[C@@H](C)[C@@H]1O [compound 47] | > 200 µM
31 | C=C[C@]1(C)C[C@@H](OC(=O)CSCCOCCOCCOCCOCCOCCOCCOCCO)[C@]2(C)[C@H](C)CC[C@]3(CCC(=O)[C@H]32)[C@@H](C)[C@@H]1O [compound 48] | > 200 µM
32 | C=C[C@]1(C)C[C@@H](OC(=O)CSCCOCCOCCOCCO)[C@]2(C)[C@H](C)CC[C@]3(CCC(=O)[C@H]32)[C@@H](C)[C@@H]1O [compound 45] | > 200 µM
33 | C=C[C@]1(C)C[C@@H](OC(=O)CSCCOCCOCCN=[N+]=[N-])[C@]2(C)[C@H](C)CC[C@]3(CCC(=O)[C@H]32)[C@@H](C)[C@@H]1O [compound 30] | 50 to 100 µM (≈ 27.6 to 55.2 µg/mL)
34 | C=C[C@]1(C)C[C@@H](OC(=O)CSCCOCCOCCO)[C@]2(C)[C@H](C)CC[C@]3(CCC(=O)[C@H]32)[C@@H](C)[C@@H]1O [compound 44] | > 200 µM
35 | C=C[C@]1(C)C[C@@H](OC(=O)CSCCOCCOCCOCCOCCO)[C@]2(C)[C@H](C)CC[C@]3(CCC(=O)[C@H]32)[C@@H](C)[C@@H]1O [compound 46] | > 200 µM
36 | C=C[C@]1(C)C[C@@H](OC(=O)CO)[C@]2(C)[C@H](C)CC[C@]3(CCC(=O)[C@H]32)[C@@H](C)[C@@H]1O [compound 1, Pleuromutilin] | 50 to 100 µM (≈ 18.9 to 37.9 µg/mL)

tested on: methicillin-resistant S. aureus (MRSA) ATCC 43300; assay: Broth microdilution MIC, MRSA 43300; type: cell-based, Staphylococcus aureus; conditions: Staphylococcus aureus, read-out: Minimum inhibitory concentration, MRSA 43300

Row | Structure (SMILES) | MIC
37 | C=C[C@]1(C)C[C@@H](OC(=O)CO)[C@]2(C)[C@H](C)CC[C@]3(CCC(=O)[C@H]32)[C@@H](C)[C@@H]1O [compound 1, Pleuromutilin] | 3.12 µM (≈ 1.18 µg/mL)

same assay, conditions: Staphylococcus aureus; broth microdilution, 37 °C, 16–18 h; MIC = lowest concentration inhibiting >90% of growth; read-out: Minimum inhibitory concentration, MRSA 43300

Row | Structure (SMILES) | MIC
38 | C=C[C@]1(C)C[C@@H](OC(=O)CSCCOCCOCCOCCOCCOCCO)[C@]2(C)[C@H](C)CC[C@]3(CCC(=O)[C@H]32)[C@@H](C)[C@@H]1O [compound 47] | 1.56 µM (≈ 1.03 µg/mL)
39 | C=C[C@]1(C)C[C@@H](OC(=O)CSCCOCCOCCOCCOCCOCCOCCOCCO)[C@]2(C)[C@H](C)CC[C@]3(CCC(=O)[C@H]32)[C@@H](C)[C@@H]1O [compound 48] | 3.12 µM (≈ 2.33 µg/mL)
40 | C=C[C@]1(C)C[C@@H](OC(=O)CSCCOCCOCCOCCO)[C@]2(C)[C@H](C)CC[C@]3(CCC(=O)[C@H]32)[C@@H](C)[C@@H]1O [compound 45] | 1.56 µM (≈ 0.89 µg/mL)
41 | C=C[C@]1(C)C[C@@H](OC(=O)CSCCOCCOCCN=[N+]=[N-])[C@]2(C)[C@H](C)CC[C@]3(CCC(=O)[C@H]32)[C@@H](C)[C@@H]1O [compound 30] | 0.781 µM (≈ 0.431 µg/mL)
42 | C=C[C@]1(C)C[C@@H](OC(=O)CSCCOCCOCCO)[C@]2(C)[C@H](C)CC[C@]3(CCC(=O)[C@H]32)[C@@H](C)[C@@H]1O [compound 44] | 1.56 µM (≈ 0.822 µg/mL)
43 | C=C[C@]1(C)C[C@@H](OC(=O)CSCCOCCOCCOCCOCCO)[C@]2(C)[C@H](C)CC[C@]3(CCC(=O)[C@H]32)[C@@H](C)[C@@H]1O [compound 46] | 1.56 µM (≈ 0.959 µg/mL)
